This assay deals with B6C3F1 mice, B16 melanoma ip, median survival T/C. The experiment in a line: NCI In Vivo Anticancer Drug Screen. Data for tumor model B16 Melanoma (intraperitoneal) in B6C3F1 mice. Conditions: endpoint: median survival time, higher = longer survival. The method in brief:
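Antitumor effect was judged in mice with transplanted tumors by dividing the treated group's survival measure by that of vehicle controls.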

Where [1] appears, read: dose: 25.0 mg/kg/injection, schedule: Q01DX009 (ip), vehicle: Klucel (hydroxypropylcellulose) (HPC).
Setting [2] is: dose: 50.0 mg/kg/injection, schedule: Q01DX009 (ip), vehicle: Klucel (hydroxypropylcellulose) (HPC).
Setting [3] is: dose: 100.0 mg/kg/injection, schedule: Q01DX009 (ip), vehicle: Klucel (hydroxypropylcellulose) (HPC).
The mark [4] stands for this setting: dose: 200.0 mg/kg/injection, schedule: Q01DX009 (ip), vehicle: Klucel (hydroxypropylcellulose) (HPC).
Setting [5] is: dose: 400.0 mg/kg/injection, schedule: Q01DX009 (ip), vehicle: Klucel (hydroxypropylcellulose) (HPC).
Where [6] appears, read: dose: 6.25 mg/kg/injection, schedule: Q01DX009 (ip), vehicle: saline with Tween-80.
The mark [7] stands for this setting: dose: 12.5 mg/kg/injection, schedule: Q01DX009 (ip), vehicle: saline with Tween-80.
Where [8] appears, read: dose: 25.0 mg/kg/injection, schedule: Q01DX009 (ip), vehicle: saline with Tween-80.
[9] abbreviates: dose: 50.0 mg/kg/injection, schedule: Q01DX009 (ip), vehicle: saline with Tween-80.
Setting [10] is: dose: 100.0 mg/kg/injection, schedule: Q01DX009 (ip), vehicle: saline with Tween-80.
Where [11] appears, read: dose: 6.25 mg/kg/injection, schedule: Q01DX009 (ip), vehicle: saline.
Setting [12] is: dose: 12.5 mg/kg/injection, schedule: Q01DX009 (ip), vehicle: saline.
Setting [13] is: dose: 25.0 mg/kg/injection, schedule: Q01DX009 (ip), vehicle: saline.
Where [14] appears, read: dose: 50.0 mg/kg/injection, schedule: Q01DX009 (ip), vehicle: saline.
Where [15] appears, read: dose: 6.25 mg/kg/injection, schedule: Q01DX009 (ip), vehicle: Klucel (hydroxypropylcellulose) (HPC).
[16] abbreviates: dose: 12.5 mg/kg/injection, schedule: Q01DX009 (ip), vehicle: Klucel (hydroxypropylcellulose) (HPC).
Setting [17] is: dose: 200.0 mg/kg/injection, schedule: Q01DX009 (ip), vehicle: saline with Tween-80.
[18] abbreviates: dose: 400.0 mg/kg/injection, schedule: Q01DX009 (ip), vehicle: saline with Tween-80.

Values joined by “and” are separate entries in the source; they are usually repeats but may differ in a detail not shown here. Equal values may be shown once. Toxic doses and inconclusive results are not listed.

With `COCC1OC2OC3C(COC)OC(OC4C(COC)OC(OC5C(COC)OC(OC6C(COC)OC(OC7C(COC)OC(OC8C(COC)OC(OC1C(O)C2O)C(O)C8O)C(O)C7O)C(O)C6O)C(O)C5O)C(O)C4O)C(O)C3O` (stereo unspecified) (tested in a mixture with another compound), the T/C reads like this: under setting [1], 87 % of control; (dose: 25.0 mg/kg/injection, schedule: Q04HX027 (ip), vehicle: Klucel (hydroxypropylcellulose) (HPC)) 93 % of control; under setting [2], 90 % of control; (dose: 50.0 mg/kg/injection, schedule: Q01DX009 (oral), vehicle: Klucel (hydroxypropylcellulose) (HPC)) 93 % of control; (dose: 50.0 mg/kg/injection, schedule: Q04HX027 (ip), vehicle: Klucel (hydroxypropylcellulose) (HPC)) 86 % of control; (dose: 50.0 mg/kg/injection, schedule: Q04HX027 (oral), vehicle: Klucel (hydroxypropylcellulose) (HPC)) 97 % of control. The T/C reads like this: under setting [3], 105 % of control; (dose: 100.0 mg/kg/injection, schedule: Q01DX009 (oral), vehicle: Klucel (hydroxypropylcellulose) (HPC)) 89 % of control and 93 % of control; (dose: 100.0 mg/kg/injection, schedule: Q04HX027 (ip), vehicle: Klucel (hydroxypropylcellulose) (HPC)) 97 % of control; (dose: 100.0 mg/kg/injection, schedule: Q04HX027 (oral), vehicle: Klucel (hydroxypropylcellulose) (HPC)) 106 % of control; under setting [4], 90 % of control; (dose: 200.0 mg/kg/injection, schedule: Q04HX027 (oral), vehicle: Klucel (hydroxypropylcellulose) (HPC)) 105 % of control. Also, the T/C is 86 % of control under setting [5]; 86 % of control and 102 % of control (dose: 400.0 mg/kg/injection, schedule: Q01DX009 (oral), vehicle: Klucel (hydroxypropylcellulose) (HPC)); 101 % of control (dose: 400.0 mg/kg/injection, schedule: Q04HX027 (oral), vehicle: Klucel (hydroxypropylcellulose) (HPC)); 93 % of control (dose: 800.0 mg/kg/injection, schedule: Q01DX009 (oral), vehicle: Klucel (hydroxypropylcellulose) (HPC)); 110 % of control (dose: 800.0 mg/kg/injection, schedule: Q04HX027 (oral), vehicle: Klucel (hydroxypropylcellulose) (HPC)); 92 % of control (dose: 1600.0 mg/kg/injection, schedule: Q01DX009 (oral), vehicle: Klucel (hydroxypropylcellulose) (HPC)). Besides, the T/C runs as follows: (dose: 1600.0 mg/kg/injection, schedule: Q04HX027 (oral), vehicle: Klucel (hydroxypropylcellulose) (HPC)) 103 % of control; (dose: 3200.0 mg/kg/injection, schedule: Q01DX009 (oral), vehicle: Klucel (hydroxypropylcellulose) (HPC)) 95 % of control.

Turning to `O=C1[C@H]2CCC[C@H]2[C@H]2CCC[C@@H]12`, the T/C by setting is: under setting [6], 102 % of control; under setting [7], 99 % of control; under setting [8], 100 % of control; under setting [9], 100 % of control; under setting [10], 100 % of control.

In the case of `CC1(C)COCN1COC1CCCCC1`, the T/C is, setting by setting: under setting [11], 99 % of control; under setting [12], 114 % of control; under setting [8], 102 % of control; under setting [13], 99 % of control; under setting [9], 112 % of control; under setting [14], 114 % of control. The T/C is 115 % of control under setting [10] and 106 % of control (dose: 100.0 mg/kg/injection, schedule: Q01DX009 (ip), vehicle: saline).

As to `CC[C@@]1(O)C[C@H](OC2CC(N(C)C)C(OC3CC(O)C(OC4CCC(=O)C(C)O4)C(C)O3)C(C)O2)c2c(cc3c(c2O)C(=O)c2c(O)ccc(O)c2C3=O)[C@H]1C(=O)OC` (stereo partly specified), the T/C by setting is: (dose: 0.25 mg/kg/injection, schedule: Q01DX009 (ip), vehicle: water) 100 % of control; (dose: 0.5 mg/kg/injection, schedule: Q01DX009 (ip), vehicle: water) 120 % of control; (dose: 1.0 mg/kg/injection, schedule: Q01DX009 (ip), vehicle: water) 156 % of control.

In the case of `Nc1nc(N)c(N=O)c(Nc2ccc(Br)cc2)n1`, the T/C by setting is: under setting [8], 114 % of control; under setting [9], 107 % of control; under setting [10], 106 % of control.

For the compound `CN(C)N=Nc1ccnc2ccc(Br)cc12`, the T/C is, setting by setting: (dose: 3.13 mg/kg/injection, schedule: Q01DX009 (ip), vehicle: other) 109 % of control; (dose: 6.25 mg/kg/injection, schedule: Q01DX009 (ip), vehicle: other) 114 % of control; (dose: 12.5 mg/kg/injection, schedule: Q01DX009 (ip), vehicle: other) 110 % of control; (dose: 25.0 mg/kg/injection, schedule: Q01DX009 (ip), vehicle: other) 114 % of control; (dose: 50.0 mg/kg/injection, schedule: Q01DX009 (ip), vehicle: other) 115 % of control.

In the case of `[CH3][Sn]([CH3])([Cl])[S]CCN`, the T/C (dose: 3.12 mg/kg/injection, schedule: Q01DX009 (ip), vehicle: saline) was 109 % of control and 102 % of control; the T/C under setting [11] was 95 % of control and 96 % of control; the T/C under setting [12] was 96 % of control and 102 % of control; the T/C under setting [13] is 100 % of control; the T/C under setting [14] was 97 % of control.

As for `O=c1oc2c(O)c(O)cc3c(=O)oc4c(O)c(O)cc1c4c23`, the T/C reads like this: under setting [15], 116 % of control; under setting [16], 117 % of control; under setting [7], 123 % of control; under setting [1], 114 % of control and 120 % of control; under setting [8], 113 % of control; under setting [2], 114 % of control and 87 % of control. Moreover, the T/C is, setting by setting: under setting [9], 114 % of control; under setting [3], 108 % of control and 88 % of control; under setting [10], 105 % of control; under setting [4], 116 % of control; under setting [17], 115 % of control; under setting [18], 119 % of control.

Regarding `CC(=O)NCCSC(=O)C(=O)SCCNC(C)=O`, the T/C is 88 % of control under setting [9], 102 % of control under setting [10] and 87 % of control under setting [17].

`COC1=C(OC)C(=O)C(C/C=C(\C)CC/C=C(\C)CC/C=C(\C)CC/C=C(\C)CC/C=C(\C)CC/C=C(\C)CC/C=C(\C)CC/C=C(\C)CC/C=C(\C)CCC=C(C)C)=C(C)C1=O`: the T/C was 91 % of control under setting [6]; 97 % of control and 101 % of control under setting [7]; 93 % of control and 96 % of control under setting [8]; 97 % of control under setting [9]; 94 % of control and 98 % of control under setting [10]; 87 % of control and 90 % of control under setting [17].

With `C/C=C1/C(=O)O[C@]23C=C[C@@H]4C(C(=O)OC)=CO[C@H](O[C@@H]12)[C@@H]43`, the T/C (dose: 3.75 mg/kg/injection, schedule: Q01DX009 (ip), vehicle: Klucel (hydroxypropylcellulose) (HPC)) was 102 % of control; the T/C (dose: 7.5 mg/kg/injection, schedule: Q01DX009 (ip), vehicle: Klucel (hydroxypropylcellulose) (HPC)) was 91 % of control; the T/C (dose: 15.0 mg/kg/injection, schedule: Q01DX009 (ip), vehicle: Klucel (hydroxypropylcellulose) (HPC)) was 98 % of control.

Regarding `CC(=O)Nc1ccc(/C=N/NC(N)=S)cc1`, the T/C under setting [8] was 93 % of control; the T/C under setting [9] was 97 % of control; the T/C under setting [10] is 90 % of control; the T/C under setting [17] is 88 % of control; the T/C under setting [18] was 92 % of control.

For `CC(C)CC(NC(=O)CNC(=O)CNC(=O)OCc1ccccc1)C(=O)O` (stereo unspecified), the T/C was 103 % of control (dose: 0.75 mg/kg/injection, schedule: Q01DX009 (ip), vehicle: Klucel (hydroxypropylcellulose) (HPC)); 107 % of control (dose: 1.5 mg/kg/injection, schedule: Q01DX009 (ip), vehicle: Klucel (hydroxypropylcellulose) (HPC)); 95 % of control (dose: 3.0 mg/kg/injection, schedule: Q01DX009 (ip), vehicle: Klucel (hydroxypropylcellulose) (HPC)); 101 % of control (dose: 3.12 mg/kg/injection, schedule: Q01DX009 (ip), vehicle: Klucel (hydroxypropylcellulose) (HPC)); 106 % of control (dose: 6.0 mg/kg/injection, schedule: Q01DX009 (ip), vehicle: Klucel (hydroxypropylcellulose) (HPC)); 92 % of control under setting [15]. In addition, the T/C by setting is: (dose: 12.0 mg/kg/injection, schedule: Q01DX009 (ip), vehicle: Klucel (hydroxypropylcellulose) (HPC)) 101 % of control; under setting [16], 92 % of control; under setting [1], 115 % of control and 104 % of control; under setting [2], 100 % of control; under setting [3], 122 % of control; under setting [4], 89 % of control. Also, the T/C under setting [5] was 110 % of control.

The values are drawn from PubChem BioAssay AID200 (DTP/NCI, 2004).
